This assay deals with circulating tumor cell (CTC). The assay is described as follows: CTC obtainment test (CTCs-inducing ability / CTC yield efficiency) by culture of patient PBMCs in test culture media. In kind it is cell-based, human. As to conditions: additive component study. The procedure:
Examples of the present invention followed experimental methods given below. Specifically, all experimental samples (peripheral blood from various cancer patients who donated blood) were aseptically treated by procedures given below. In the case where infections by various viruses such as HBV and HCV were found in advance according to information from each cooperating facility, the treatment thereof was tested aside from a non-infected group and proper medical waste treatment was carried out by medical waste treatment professionals. 1. A disposable 30 ml syringe for blood collection containing an appropriate amount of an anticoagulant heparin sodium (0.05 ml) was provided, and a disposable 30 ml blood collection syringe for serum procurement containing no heparin sodium was also provided. These syringes were respectively connected to insertion ports of L-type 180° three-way stopcock, while an appropriate 18-, 21- or 24-gauge butterfly needle was connected to the vascular vessel side to prepare for blood collection. 30 ml of blood per each sample was collected, and the following separation operation was carried out. 2. For serum collection, the blood collection syringe barrel with a needle put thereon was placed at 37° C. for 1 hour in a 5% CO2 incubator, followed by centrifugation at 3,000 rpm (800 G) at 4° C. for 30 minutes. […]

As to lipopolysaccharide [LPS], the CTC-inducing effect result was “slightly observed”.

For the origin of these results see patent publication US20190049456A1, “METHOD FOR DETECTING OR SEPARATING/OBTAINING CIRCULATING TUMOR CELL EMPLOYING CELL PROLIFERATION METHOD” (priority 2016, published 2019).
